Assay results taken from patent US20220251152A1, “COMPOSITIONS AND METHODS FOR SELECTIVE PROTEIN DEGRADATION” (Novartis AG, priority 2019, published 2022).
“Also recorded” adds a separate entry of the source.

Tests used:
CAR19 = assay: Surface CAR expression in primary T cells expressing CAR19, flow cytometry; format: cell-based; conditions: lenalidomide 1, 0.1, 0.01 μM, 24 or 48 hrs, FIG. 31B
Excerpt: Cells were harvested and washed with PBS.

[1] = test system: HilD-tagged CAR19 or FurON-CAR19 (NFAT luciferase reporter); assay: JNL NFAT luciferase reporter assay, lenalidomide dose-response at three treatment time points; format: cell-based, human; conditions: for decrease of luminescence signal at the highest doses: construct 767; for reduction of luminescence signal: highest 2-3 doses (10 μM, 3.16 μM, and 1 μM)
Method: This study used the JNL cell line described above, which is a Jurkat cell line modified with an NFAT luciferase reporter. Co-culturing of CAR19-expressing JNL cells and CD19-expressing B cells activates the NFAT signaling, leading to luciferase expression.
For target cell co-culture, K562 cells or CD19-expressing K562 cells were added to each well containing JNL cells and cultured on a GNF Systems Ultra-high throughput screening system in a 37° C. and 5% CO2 incubator.

[2] = test system: IFN gamma and IL2 secretion; assay: Cytokine secretion by CART cells co-cultured with CD19 positive cells; format: cell-based; conditions: 1 μM lenalidomide
Excerpt: (§1) The frozen CART cells were thawed in T cell media and co-cultured with either CD19 negative (K562 Cells) or CD19 positive target cells (Nalm6 cells), both expressing luciferase. Both the number of CART cells and the total number of T cells were normalized across samples; the latter was achieved by adding UTD cells. A titration of CART cells was done keeping the target cell number constant at 25,000 cells. The highest […] (E:T) explored was 20:1 and a 8 point dilution curve was used. […] The co-culture experiment was conducted in clear bottom black plates in a final volume of 200 μL. Upon a 20 hr incubation, 100 μL of supernatant was removed and cytokine levels were measured. To the rest, 100 μL Bright-Glo Luciferase assay reagent (substrate+enzyme) was added and incubated for 10 minutes, at room temperature. The % Killing was measured using the formula: Specific lysis (%)=(1−(sample luminescence/average maximal luminescence))*100.

CAR19 internal HilDtag [3] = assay: CAR19 internal HilDtag in Jurkat cells, Western blot; format: cell-based; conditions: 10 uM lenalidomide, 24 hours; FIG. 43B
Excerpt: The gels were run in duplicate, one for actin and the other for either V5 or CD3Z.

CAR19 internal HilDtag [4] = assay: Jurkat NFAT luciferase (JNL) CAR functional assay, CAR19 internal HilD-tag cells; format: cell-based; conditions: 8-point dilution, 10 uM top; FIG. 43C
Method: Cell plating: The CAR19 Internal HilD-tag cell line was diluted to 0.5×10^6 in 20 ml RPMI 1640 media (Thermo Fisher Scientific 11875-085) 10% FBS 1× pen/strep. 20 ul (0.5×10^6 cells) of this cell line was plated in a white solid-bottom 384 well plates (Greiner789163-G).
Plates were incubated for 15 hours at 37 C, 5% CO2.
B-cell addition and functional assay: K562 and Nalm6 cells were re-suspended at 0.5×10^6 cells/ml. […] Cells were stored at 37 C, 5% CO2 incubator for eight hours. Samples were then treated with 40 ul (1:1) Bright Glo (Promega E2620) and luminescence was read using Perkin Elmer's Viewlux with a 20 second exposure.

luciferized Nalm-6 = assay: Nalm-6 xenograft mouse model, tumor burden by IVIS; format: in vivo, NSG mice
Method: (§2) Female NOD.Cg-Prkdc^scid Il2rg^tm1Wjl/SzJ mice (NSG) mice, 6-8 wk of age, were purchased from Jackson Laboratories. Animal studies were carried out under protocols approved by the Institutional Animal Care and Use Committee at NIBR. NSG mice were inoculated with 1.0×10^6 luciferized Nalm-6 intravenously. Sever days later, CAR-T cells were infused intravenously into tumor-bearing mice; unless otherwise stated, lenalidomide were dosed orally at the same time. Tumor burden was measured by IVIS and was quantified as radiance in the region of interest (ROI), which was generally the area of one mouse. Mice were euthanized upon losing more that 20% of body weight or development of hind limb paralysis. Graft vs. host disease was defined in indicated animals as hair loss, behavioral changes, and clear decrease in health not attributable to Nalm-6 luciferase signal.

[5] = test system: CAR19 internal HilDtag (NFAT luciferase); assay: JNL assay of CAR19 internal HilDtag with Nalm6 or K562 cells; format: cell-based; conditions: lenalidomide dose-response
Excerpt: FIGS. 43A, 43B, and 43C are diagrams showing characterization of an exemplary anti-CD19 internal HilDtag CAR construct.

Nalm6 = assay: In vivo tumor control by CART19.HilD after Nalm6 implant (total flux); parameters: species or system mice
Excerpt: Total flux of ROI is plotted against days post Nalm6 implant.

[6] = test system: CART cells in peripheral blood; assay: CART cells in peripheral blood of xenograft mice, flow cytometry; format: in vivo, NSG mice; conditions: after lenalidomide treatment; FIG. 35
Method: as §2

Nalm6 cells = assay: CART killing assay against CD19 positive target cells (luciferase); format: cell-based; conditions: 1 μM lenalidomide, 20 hr co-culture; FIG. 32C
Excerpt: as §1

[7] = test system: CAR19 fused to HilD tag and/or FurON; assay: Flow cytometry of surface CAR expression on JNL cells, 10 μM lenalidomide and/or bazedoxifene 24 hours; format: cell-based, human; conditions: FurON-CAR19 constructs with or without the HilD tag
Excerpt: Next, the surface expression of CAR19 on stably transduced JNL cells was examined by flow cytometry. […] On Day 2, cells were harvested, stained using biotinylated-protein L (Genscript, M00097) followed by PE conjugated streptavidin (Jackson Lab, 016-110-084), and subjected to flow cytometry analysis using Fortessa instrument.

CAR19 internal HilDtag [8] = assay: FACS and Western blot of cells expressing CAR19 internal HilDtag; format: cell-based; conditions: 10 μM lenalidomide
K562 Cells = assay: CART killing assay against CD19 negative target cells (luciferase); format: cell-based; conditions: with or without 1 μM lenalidomide; FIG. 32A
Excerpt: as §1

[9] = test system: CAR19 fused to HilD tag and/or FurON; assay: Western blot of CAR19 fused to HilD tag and/or FurON in JNL cells; format: cell-based, human; conditions: CAR19-16GS-HilD-tag (construct 769); 10 μM lenalidomide
Method: Viruses were prepared from maxi preps and used to transduce JNL cells. Either 275 μL of viral supernatant or 700 μL of viral supernatant was used for transduction. JNL cells are Jurkat cells engineered with a luciferase gene under control of the NFAT promoter.
Briefly, cells were diluted to 0.5×10^6 in 3 mL total in 6 well dishes. […] Bazedoxifene was added at a final concentration of 1 μM to every well that contained a cell line expressing a fusion comprising FurON. […] Cells were incubated at 37° C. and 5% CO2 overnight.
Lysates were centrifuged, supernatant transferred to new tubes and protein quantities read by Lowry Assay (BioRad 5000111). Each sample was normalized to 30 μg total protein in a 20 μL volume with 4× sample buffer (Thermo Scientific NP0007) and 10× reducing agent (Thermo Scientific NP0009). Samples were subjected to Western blot analysis using a mouse anti-V5 antibody (Thermo Scientific MA5-15253) at 1:1000 dilution, a mouse anti-actin antibody (Sigma Aldrich A5441) at 1:10000 dilution, and/or a mouse anti-CD3z antibody (BD 551034) at 1:1000 dilution.
Cells were harvested and subjected to Western blot as described above using a mouse anti-actin antibody (Sigma Aldrich A5441) at 1:10000 dilution or a mouse anti-CD3zeta antibody (BD 551034) at 1:1000 dilution.

CAR19 internal HilDtag [10] = assay: CAR19 internal HilDtag in JNL cells, FACS; format: cell-based; conditions: 10 uM lenalidomide, 24 hours; FIG. 43A
Method: FACS: Cells were harvested in u-bottom plates and washed using 1×PBS. […] After incubation the cells were washed using PBS.

Nc1cccc2c1CN(C1CCC(=O)NC1=O)C2=O (stereo not shown) [lenalidomide, 3-(4-amino-1-oxoisoindolin-2-yl)piperidine-2,6-dione]
expression of CAR19 (CAR19): did not affect expression of CAR19 | effect on CD19-induced NFAT reporter signal ([1]; HilD-tagged CAR19 or lysine-free-HilD-tagged CAR19 (constructs 769, 770)): significantly reduced | effect on reporter response without the HilD tag ([1]; construct 765 (FurON_CAR19) with bazedoxifene): had no impact on reporter response; also recorded: did not impact the luminescence signal | decrease of luminescence signal at the highest doses ([1]; 8-hour treatment group (16 hr post-target cells)): 90% | decrease of luminescence signal at the highest doses ([1]; 28-hour treatment group (4 hr pre-target cells)): 100% | decrease of luminescence signal at the highest doses ([1]; 44-hour treatment group (20 hr pre-target cells)): 100% | reduction of CD19-induced reporter activation ([1]; construct 767 with bazedoxifene, lenalidomide 4 hours prior to K562+CD19 target cells): ~80% | reduction of luminescence signal ([1]; construct 769): ~100% | reduction of luminescence signal ([1]; construct 770): ~100% | secreted IFN gamma by CART19 HilD cells ([2]; CD19 positive cells, FIG. 33A): decreased | secreted IL2 by CART19 HilD cells ([2]; CD19 positive cells, FIG. 33B): decreased | ability of CART19 to secrete cytokines ([2]; FIGS. 33A and 33B): immune to the addition of lenalidomide | CAR19 protein (Western blot) (CAR19 internal HilDtag [3]): degradation of CAR19 | response of CAR19 internal HilDtag JNL cells to CD19 positive Nalm6 cells (CAR19 internal HilDtag [4]): reduced this response in a dose-dependent manner | ability of CART19.HilD to control tumor growth in vivo (luciferized Nalm-6; lenalidomide 30 mg/kg bid orally, FIG. 34): totally abolish | Nalm6 growth in vivo (luciferized Nalm-6; lenalidomide alone, data not shown): little effect | tumor relapse (luciferized Nalm-6; lenalidomide dosed at day 5 after CART19HilD adoptive transfer, FIG. 36): tumor relapse a few days after lenalidomide dosing | ability to control tumor growth in vivo (luciferized Nalm-6; lenalidomide dosed immediately after CART19.HilD transfer, FIG. 36): lost the ability to control tumor growth in vivo | response to CD19 positive Nalm6 cells [5]: reduced this response in a dose-dependent manner | tumor control, later treatment of lenalidomide (Nalm6; day 5 post CART injection (FIG. 36)): loss of tumor control | tumor control, early injection of lenalidomide (Nalm6; mice treated with CART-HilD (FIG. 36)): absence of tumor control | tumor control by CART19.HilD (Nalm6; total flux vs days post Nalm6 implant (FIG. 34)): abolishes the ability of CART19.HilD to control tumor growth | CART cells in peripheral blood [6]: Loss of CART cells in peripheral blood | killing curve of CART19-HilD against CD19-positive cells (Nalm6 cells): slightly shifted | lenalidomide-dependent reduction of surface CAR levels [7]: only observed when CAR19 was fused to the HilD tag | CAR degradation (FACS) (CAR19 internal HilDtag [8]; JNL cells): degradation | CAR19 degradation (Western blot) (CAR19 internal HilDtag [8]; Jurkat cells, 24 hours): degradation of CAR19 | killing against CD19 negative cells (K562 Cells): Low background killing | time at which degradation is first evident [9]: ≤ 4 h | time to maximal degradation [9]: ≤ 8 h | anti-CD19 CAR expression (FACS) (CAR19 internal HilDtag [10]): degradation
